In patent publication US7491819B1 (priority 2004, dated 2009):
pIC50: −log10 of the molar value.

What follows are molecules tested against T1, HIV-integrase (Human immunodeficiency virus type 1 group M subtype B, UniProt P12497) (assay: HIV-Integrase Inhibition Activity (SPA bead strand-transfer assay)). Conditions: Table 1; read-out: Activity (HIV-integrase inhibition, IC50 class).
T1 construct: Recombinant integrase (0.26 ng) was incubated with the beads
Format: biochemical
Protocol: HIV-Integrase Inhibition Activity. To evaluate in-vitro activity against HIV-integrase, 5 pmole of biotin labeled substrate DNA was bound to 100 μg of Streptavidin coated PVT SPA beads (Amersham Pharmacia Biotech). Recombinant integrase (0.26 ng) was incubated with the beads for 90 min at 37° C. Unbound enzyme was removed by washing the complex followed by addition of inhibitors and 0.1 fmol of P33 labeled target DNA. The reaction was stopped by adding EDTA to a final concentration of 10 mM. Samples were counted in TopCountNXT (Packard) and the CPM was used as a measure of integration. The reaction condition was as described in A. Engelman and R. Craigie, J. Virol 69, 5908-5911 (1995). The sequences of substrate and target DNA were described in Nucleic Acid Research 22, 1121-1122 (1994).
With `COc1ccc(CNC(=O)c2nc3n(c(=O)c2O)CCOC3(C)C)cc1` [Example 244, Pyrimido[2,1-c][1,4]oxazine-2-carboxamide, 4,6,7,9-tetrahydro-3-hydroxy-N-[(4-methoxyphenyl)methyl]-9,9-dimethyl-4-oxo-] the pIC50 was 7.00 to 8.70. `CC1(C)OCCn2c1nc(C(=O)NCc1cccc3c1S(=O)(=O)CC3)c(O)c2=O` [Example 140, Pyrimido[2,1-c][1,4]oxazine-2-carboxamide, N-[(2,3-dihydro-1,1-dioxidobenzo[b]thien-7-yl)methyl]-4,6,7,9-tetrahydro-3-hydroxy-9,9-dimethyl-4-oxo-] was tested, and the pIC50 was 7.00 to 8.70. `COc1cccc(CNC(=O)c2nc3n(c(=O)c2O)CCOC3(C)C)c1` [Example 222, Pyrimido[2,1-c][1,4]oxazine-2-carboxamide, 4,6,7,9-tetrahydro-3-hydroxy-N-[(3-methoxyphenyl)methyl]-9,9-dimethyl-4-oxo-] gave a pIC50 of 7.00 to 8.70. In the case of `CC1(C)OCCn2c1nc(C(=O)NCc1ccc(F)cc1-n1cnc(C(=O)NS(=O)(=O)c3ccc(F)cc3)n1)c(O)c2=O` [Example 68, Pyrimido[2,1-c][1,4]oxazine-2-carboxamide, N-[[4-fluoro-2-[3-[[[(4-fluorophenyl)sulfonyl]amino]carbonyl]-1H-1,2,4-triazol-1-yl]phenyl]methyl]-4,6,7,9-tetrahydro-3-hydroxy-9,9-dimethyl-4-oxo-], the pIC50 was 7.00 to 8.70. `COc1cccc(-c2ccccc2CNC(=O)c2nc3n(c(=O)c2O)CCOC3(C)C)c1` [Example 164, Pyrimido[2,1-c][1,4]oxazine-2-carboxamide, 4,6,7,9-tetrahydro-3-hydroxy-N-[(3′-methoxy[1,1′-biphenyl]-2-yl)methyl]-9,9-dimethyl-4-oxo-] showed a pIC50 of 7.00 to 8.70. Work on `CC1(C)OCCn2c1nc(C(=O)NCc1ccccc1Br)c(O)c2=O` [Example 147, Pyrimido[2,1-c][1,4]oxazine-2-carboxamide, N-[(2-bromophenyl)methyl]-4,6,7,9-tetrahydro-3-hydroxy-9,9-dimethyl-4-oxo-] yielded a pIC50 of 7.00 to 8.70. For `CCC1OCCn2c1nc(C(=O)NCc1ccc(F)cc1-n1cncn1)c(O)c2=O` (stereo not shown) [Example 16, Pyrimido[2,1-c][1,4]oxazine-2-carboxamide, 9-ethyl-N-[[4-fluoro-2-(1H-1,2,4-triazol-1-yl)phenyl]methyl]-4,6,7,9-tetrahydro-3-hydroxy-4-oxo-], the pIC50 was 7.00 to 8.70. `CC1(C)OCCn2c1nc(C(=O)NCc1ccccc1-c1cccc(C#N)c1)c(O)c2=O` [Example 167, Pyrimido[2,1-c][1,4]oxazine-2-carboxamide, N-[(3′-cyano[1,1′-biphenyl]-2-yl)methyl]-4,6,7,9-tetrahydro-3-hydroxy-9,9-dimethyl-4-oxo-] showed a pIC50 of 7.00 to 8.70. Work on `Cc1ccc(Cl)cc1CNC(=O)c1nc2n(c(=O)c1O)CCOC2(C)C` [Example 251, Pyrimido[2,1-c][1,4]oxazine-2-carboxamide, N-[(5-chloro-2-methylphenyl)methyl]-4,6,7,9-tetrahydro-3-hydroxy-9,9-dimethyl-4-oxo-] yielded a pIC50 of 7.00 to 8.70. `CC1(C)OCCn2c1nc(C(=O)NCc1ccccc1-c1ccsc1)c(O)c2=O` [Example 179, Pyrimido[2,1-c][1,4]oxazine-2-carboxamide, 4,6,7,9-tetrahydro-3-hydroxy-9,9-dimethyl-4-oxo-N-[[2-(3-thienyl)phenyl]methyl]-] was tested, and the pIC50 was 7.00 to 8.70. `CC1(C)OCCn2c1nc(C(=O)NCc1ccc(F)cc1C#CCS(C)(=O)=O)c(O)c2=O` [Example 92, Pyrimido[2,1-c][1,4]oxazine-2-carboxamide, N-[[4-fluoro-2-[3-(methylsulfonyl)-1-propynyl]phenyl]methyl]-4,6,7,9-tetrahydro-3-hydroxy-9,9-dimethyl-4-oxo-] showed a pIC50 of 7.00 to 8.70. For `CC1(C)OCCn2c1nc(C(=O)NCc1ccc(F)cc1N1CCCC1=O)c(O)c2=O` [Example 124, Pyrimido[2,1-c][1,4]oxazine-2-carboxamide, N-[[4-fluoro-2-(2-oxo-1-pyrrolidinyl)phenyl]methyl]-4,6,7,9-tetrahydro-3-hydroxy-9,9-dimethyl-4-oxo], the pIC50 was 7.00 to 8.70. Molecule `CC1(C)OCCn2c1nc(C(=O)NCc1cccc(Cl)c1Cl)c(O)c2=O` [Example 227, Pyrimido[2,1-c][1,4]oxazine-2-carboxamide, N-[(2,3-dichlorophenyl)methyl]-4,6,7,9-tetrahydro-3-hydroxy-9,9-dimethyl-4-oxo-] has a pIC50 of 7.00 to 8.70. Molecule `CC1(C)OCCn2c1nc(C(=O)NCc1ccc(F)cc1C(=O)NC1CC1)c(O)c2=O` [Example 50, Pyrimido[2,1-c][1,4]oxazine-2-carboxamide, N-[[2-[(cyclopropylamino)carbonyl]-4-fluorophenyl]methyl]-4,6,7,9-tetrahydro-3-hydroxy-9,9-dimethyl-4-oxo-] has a pIC50 of 7.00 to 8.70. With `CC1(C)OCCn2c1nc(C(=O)NCc1ccc(O)cc1)c(O)c2=O` [Example 259, Pyrimido[2,1-c][1,4]oxazine-2-carboxamide, 4,6,7,9-tetrahydro-3-hydroxy-N-[(4-hydroxyphenyl)methyl]-9,9-dimethyl-4-oxo-] the pIC50 was 7.00 to 8.70. `Cc1[nH]c2ccc(CNC(=O)c3nc4n(c(=O)c3O)CCOC4(C)C)cc2c1C` [Example 144, Pyrimido[2,1-c][1,4]oxazine-2-carboxamide, N-[(2,3-dimethyl-1H-indol-5-yl)methyl]-4,6,7,9-tetrahydro-3-hydroxy-9,9-dimethyl-4-oxo-] showed a pIC50 of 6.00 to 7.00. `CC1(C)OCCn2c1nc(C(=O)NCc1ccccc1-c1ccc(C(N)=O)cc1)c(O)c2=O` [Example 173, Pyrimido[2,1-c][1,4]oxazine-2-carboxamide, N-[[4′-(aminocarbonyl)[1,1′-biphenyl]-2-yl]methyl]-4,6,7,9-tetrahydro-3-hydroxy-9,9-dimethyl-4-oxo-] gave a pIC50 of 7.00 to 8.70. `CN(C)CCNC(=O)c1cccc(-c2ccccc2CNC(=O)c2nc3n(c(=O)c2O)CCOC3(C)C)c1` [Example 195, Pyrimido[2,1-c][1,4]oxazine-2-carboxamide, N-[[3′-[[[2-(dimethylamino)ethyl]amino]carbonyl][1,1′-bzphenyl]-2-yl]methyl]-4,6,7,9-tetrahydro-3-hydroxy-9,9-dimethyl-4-oxo-] was tested, and the pIC50 was 7.00 to 8.70. Work on `CCC1(CC)OCCn2c1nc(C(=O)NCc1ccc(F)cc1C(=O)NC)c(O)c2=O` [Example 120, Pyrimido[2,1-c][1,4]oxazine-2-carboxamide, 9,9-diethyl-N-[[4-fluoro-2-[(methylamino)carbonyl]phenyl]methyl]-4,6,7,9-tetrahydro-3-hydroxy-4-oxo-] yielded a pIC50 of 7.00 to 8.70. `Cc1cc(Cl)ccc1CNC(=O)c1nc2n(c(=O)c1O)CCOC2(C)C` [Example 272, Pyrimido[2,1-c][1,4]oxazine-2-carboxamide, N-[(4-chloro-2-methylphenyl)methyl]-4,6,7,9-tetrahydro-3-hydroxy-9,9-dimethyl-4-oxo-] was tested, and the pIC50 was 7.00 to 8.70. With `COc1cccc(CNC(=O)c2nc3n(c(=O)c2O)CCOC3(C)C)c1OC` [Example 229, Pyrimido[2,1-c][1,4]oxazine-2-carboxamide, N-[(2,3-dimethoxyphenyl)methyl]-4,6,7,9-tetrahydro-3-hydroxy-9,9-dimethyl-4-oxo-] the pIC50 was 7.00 to 8.70. Work on `CC1(C)OCCn2c1nc(C(=O)NCc1ccccc1-c1ccc(N3CCOCC3)cc1)c(O)c2=O` [Example 168, Pyrimido[2,1-c][1,4]oxazine-2-carboxamide, 4,6,7,9-tetrahydro-3-hydroxy-9,9-dimethyl-N-[[4′-(4-morpholinyl)[1,1′-biphenyl]-2-yl]methyl]-4-oxo-] yielded a pIC50 of 7.00 to 8.70. Work on `CN1CCN(C(=O)c2ncn(-c3cc(F)ccc3CNC(=O)c3nc4n(c(=O)c3O)CCOC4(C)C)n2)CC1` [Example 69, Pyrimido[2,1-c][1,4]oxazine-2-carboxamide, N-[[4-fluoro-2-[3-[(4-methyl-1-piperazinyl)carbonyl]-1H-1,2,4-triazol-1-yl]phenyl]methyl]-4,6,7,9-tetrahydro-3-hydroxy-9,9-dimethyl-4-oxo-] yielded a pIC50 of 7.00 to 8.70. `CC1(C)OCCn2c1nc(C(=O)NCc1ccc(F)cc1-n1cnc(C(=O)O)n1)c(O)c2=O` [Example 61, 1H-1,2,4-Triazole-3-carboxylic acid, 1-[5-fluoro-2-[[[(4,6,7,9-tetrahydro-3-hydroxy-9,9-dimethyl-4-oxopyrimido[2,1-c][1,4]oxazin-2-yl)carbonyl]amino]methyl]phenyl]-] showed a pIC50 of 7.00 to 8.70. In the case of `COc1ccc(-c2cc(F)ccc2CNC(=O)c2nc3n(c(=O)c2O)CCOC3(C)C)cn1` [Example 77, Pyrimido[2,1-c][1,4]oxazine-2-carboxamide, N-[[4-fluoro-2-(6-methoxy-3-pyridinyl)phenyl]methyl]-4,6,7,9-tetrahydro-3-hydroxy-9,9-dimethyl-4-oxo], the pIC50 was 7.00 to 8.70. `CCNc1cc(F)ccc1CNC(=O)c1nc2n(c(=O)c1O)CCOC2(C)C` [Example 87, Pyrimido[2,1-c][1,4]oxazine-2-carboxamide, N-[[2-(ethylamino)-4-fluorophenyl]methyl]-4,6,7,9-tetrahydro-3-hydroxy-9,9-dimethyl-4-oxo-] showed a pIC50 of 7.00 to 8.70. For `CC1(C)OCCn2c1nc(C(=O)NCc1ccc(F)cc1C(=O)NCCO)c(O)c2=O` [Example 51, Pyrimido[2,1-c][1,4]oxazine-2-carboxamide, N-[[4-fluoro-2-[[(2-hydroxyethyl)amino]carbonyl]phenyl]methyl]-4,6,7,9-tetrahydro-3-hydroxy-9,9-dimethyl-4-oxo-], the pIC50 was 7.00 to 8.70. `CC1(C)OCCCn2c1nc(C(=O)NCc1ccc(F)cc1N1CCC1=O)c(O)c2=O` [Example 280, 6H-Pyrimido[2,1-c][1,4]oxazepine-2-carboxamide, N-[[4-fluoro-2-(2-oxo-1-azetidinyl)phenyl]methyl]-4,7,8,10-tetrahydro-3-hydroxy-10,10-dimethyl-4-oxo-] was tested, and the pIC50 was 7.00 to 8.70.
